Assay results taken from ChEMBL document CHEMBL1133991, “Bioisosteres of 9-carboxymethyl-4-oxo-imidazo[1,2-a]indeno-[1,2-e]pyrazin-2-carboxylic acid derivatives. Progress towards selective, potent in vivo AMPA antagonists with longer durations of action” (Bioorg Med Chem Lett, 2001).
pIC50: −log10 of the molar value. Activity calls are given as the source filed them. No cut-off for these calls is given here.

Legend:
[1] = system: Mus musculus; test: Dose which protected 50 % of the mice from a tonic convulsion, pretreatment was before 3 hr by i.v. administration in MES test.; type: functional; conditions: iv
[2] = species on record: Mus musculus; test: (§1) Dose which protected 50 % of the mice from a tonic convulsion.; type: functional
[3] = target: T1, Glutamate receptor ionotropic, AMPA (Rattus norvegicus, UniProt P19490+P19491+P19492+P19493)
Description: Affinity towards Ionotropic glutamate receptor AMPA using [3H]AMPA as ligand on rat cortical membrane preparations

[4] = target: Glutamate NMDA receptor; test: In vitro binding affinity towards NMDA glutamate receptor using [3H]5,7-dichlorokynurenate as ligand on rat cortical membrane preparations
[5] = system: Mus musculus; test: Dose which protected 50 % of the mice from a tonic convulsion, pretreatment was before 3 hr by i.v. administration in MES test at 40 mg/kg (Inactive); type: functional, organism-based; parameters: dose 40 mg/kg
[6] = species on record: Mus musculus; test: as §1; type: functional; remark: listed apart in the source
[7] = target: T1, Glutamate receptor ionotropic, AMPA; remark: listed apart in the source
Description: Compound was evaluated for potent antagonist intrinsic activity against Ionotropic glutamate receptor AMPA

`O=c1[nH]c2cc(-n3ccnc3)c([N+](=O)[O-])cc2[nH]c1=O` [YM-90K] was tested, and the ED50 [1] was greater than 40 mg/kg.
In the case of `O=C(O)c1cn2c3c(nc(O)c2n1)-c1cccc(CP(=O)(O)O)c1C3`, the ED50 [2] was 5.6 mg/kg, the pIC50 [3] was 6.23 and the pIC50 [4] was less than 5.00.
`O=C(O)CCc1cn2c3c(nc(O)c2n1)-c1cccc(CC(=O)O)c1C3` was tested, and the ED50 [2] was 1.9 mg/kg, the pIC50 [3] was 7.51 and the pIC50 [4] was 5.80.
`O=C(O)c1cn2c3c(nc(O)c2n1)-c1cccc(Cc2nn[nH]n2)c1C3` was tested, and the ED50 [2] was 2.3 mg/kg, the ED50 [5] was “inactive” and the ED50 [6] was 2 mg/kg. For the same compound, the pIC50 [3] was 7.82 and the pIC50 [4] was 6.27.
`O=C(O)Cc1cccc2c1Cc1c-2nc(O)c2nc(CP(=O)(O)O)cn12` showed an ED50 [2] of 4.7 mg/kg, an ED50 [6] of 2.5 mg/kg and a pIC50 [3] of 6.83. The pIC50 [4] was less than 5.00 and the ED50 [1] was 22.4 mg/kg.
`O=C(O)Cc1cccc2c1Cc1c-2nc(O)c2nc(-c3ccccc3C(=O)O)cn12` was tested, and the pIC50 [3] was 7.00 and the pIC50 [4] was 5.21.
Work on `O=C(O)/C=C/c1cn2c3c(nc(O)c2n1)-c1cccc(CC(=O)O)c1C3` yielded an ED50 [2] of 2.2 mg/kg, an ED50 [6] of 3.8 mg/kg and a pIC50 [3] of 7.52. It also gave a pIC50 [4] of less than 5.00 and an ED50 [1] of 25.6 mg/kg.
With `O=C(O)Cc1cccc2c1Cc1c-2nc(O)c2nc(-c3cccc(C(=O)O)c3)cn12` the ED50 [2] was 8.6 mg/kg, the pIC50 [3] was 7.40 and the pIC50 [4] was 5.14.
`O=C(O)Cc1cccc2c1Cc1c-2nc(O)c2nc(C(=O)O)cn12` was tested, and the ED50 [1] was 25.6 mg/kg.
`O=C(Cc1cccc2c1Cc1c-2nc(O)c2nc(C(=O)O)cn12)NS(=O)(=O)c1ccccc1` gave a pIC50 [3] of 6.86 and a pIC50 [4] of 5.70.
`O=C(O)Cc1cccc2c1Cc1c-2nc(O)c2nc(-c3ccc(C(=O)O)cc3)cn12` showed an ED50 [2] of 5 mg/kg, an ED50 [6] of 5 mg/kg and a pIC50 [3] of 7.92. It also gave a pIC50 [4] of 5.24 and an ED50 [1] of 15 mg/kg.
`CNC(=O)Cc1cccc2c1Cc1c-2nc(O)c2nc(C(=O)O)cn12` was tested, and the ED50 [2] was 10 mg/kg, the ED50 [6] was 5 mg/kg and the pIC50 [3] was 6.72. The pIC50 [4] was 6.48 and the ED50 [1] was greater than 20 mg/kg.
Work on `O=C(O)[C@@H]1C[C@H]2C[C@@H](CCc3nn[nH]n3)CC[C@H]2CN1` [TEZAMPANEL ANHYDROUS] yielded an ED50 [6] of 3.4 mg/kg.
`O=C(O)Cc1cn2c3c(nc(O)c2n1)-c1cccc(CC(=O)O)c1C3` was tested, and the ED50 [6] was 0.5 mg/kg and the ED50 [1] was 28 mg/kg.
Work on `CS(=O)(=O)NC(=O)Cc1cccc2c1Cc1c-2nc(O)c2nc(C(=O)O)cn12` yielded a pIC50 [3] of 6.63 and a pIC50 [4] of 5.92.
Compound `O=C(O)Cc1cccc2c1Cc1c-2nc(O)c2nc(P(=O)(O)O)cn12` has an ED50 [2] of 3.5 mg/kg, an ED50 [6] of 2.9 mg/kg and a pIC50 [3] of 6.82. The pIC50 [4] was less than 5.00 and the ED50 [1] was 3.5 mg/kg.
In the case of `O=P(O)(O)c1cn2c3c(nc(O)c2n1)-c1cccc(Cc2nn[nH]n2)c1C3`, the ED50 [2] was 1 mg/kg, the pIC50 [7] was 8.22 and the ED50 [6] was 0.8 mg/kg. The pIC50 [3] was 7.89, the pIC50 [4] was 5.63 and the ED50 [1] was 3.5 mg/kg.
